Structures are written as SMILES. Structures can show the parent of a compound that is named as a salt.

The first test deals with T1, recombinant human baculovirus-expressed GST-tagged FASN (Homo sapiens, UniProt P49327).
T1 construct: GST
T1 sequence (P49327 whole entry): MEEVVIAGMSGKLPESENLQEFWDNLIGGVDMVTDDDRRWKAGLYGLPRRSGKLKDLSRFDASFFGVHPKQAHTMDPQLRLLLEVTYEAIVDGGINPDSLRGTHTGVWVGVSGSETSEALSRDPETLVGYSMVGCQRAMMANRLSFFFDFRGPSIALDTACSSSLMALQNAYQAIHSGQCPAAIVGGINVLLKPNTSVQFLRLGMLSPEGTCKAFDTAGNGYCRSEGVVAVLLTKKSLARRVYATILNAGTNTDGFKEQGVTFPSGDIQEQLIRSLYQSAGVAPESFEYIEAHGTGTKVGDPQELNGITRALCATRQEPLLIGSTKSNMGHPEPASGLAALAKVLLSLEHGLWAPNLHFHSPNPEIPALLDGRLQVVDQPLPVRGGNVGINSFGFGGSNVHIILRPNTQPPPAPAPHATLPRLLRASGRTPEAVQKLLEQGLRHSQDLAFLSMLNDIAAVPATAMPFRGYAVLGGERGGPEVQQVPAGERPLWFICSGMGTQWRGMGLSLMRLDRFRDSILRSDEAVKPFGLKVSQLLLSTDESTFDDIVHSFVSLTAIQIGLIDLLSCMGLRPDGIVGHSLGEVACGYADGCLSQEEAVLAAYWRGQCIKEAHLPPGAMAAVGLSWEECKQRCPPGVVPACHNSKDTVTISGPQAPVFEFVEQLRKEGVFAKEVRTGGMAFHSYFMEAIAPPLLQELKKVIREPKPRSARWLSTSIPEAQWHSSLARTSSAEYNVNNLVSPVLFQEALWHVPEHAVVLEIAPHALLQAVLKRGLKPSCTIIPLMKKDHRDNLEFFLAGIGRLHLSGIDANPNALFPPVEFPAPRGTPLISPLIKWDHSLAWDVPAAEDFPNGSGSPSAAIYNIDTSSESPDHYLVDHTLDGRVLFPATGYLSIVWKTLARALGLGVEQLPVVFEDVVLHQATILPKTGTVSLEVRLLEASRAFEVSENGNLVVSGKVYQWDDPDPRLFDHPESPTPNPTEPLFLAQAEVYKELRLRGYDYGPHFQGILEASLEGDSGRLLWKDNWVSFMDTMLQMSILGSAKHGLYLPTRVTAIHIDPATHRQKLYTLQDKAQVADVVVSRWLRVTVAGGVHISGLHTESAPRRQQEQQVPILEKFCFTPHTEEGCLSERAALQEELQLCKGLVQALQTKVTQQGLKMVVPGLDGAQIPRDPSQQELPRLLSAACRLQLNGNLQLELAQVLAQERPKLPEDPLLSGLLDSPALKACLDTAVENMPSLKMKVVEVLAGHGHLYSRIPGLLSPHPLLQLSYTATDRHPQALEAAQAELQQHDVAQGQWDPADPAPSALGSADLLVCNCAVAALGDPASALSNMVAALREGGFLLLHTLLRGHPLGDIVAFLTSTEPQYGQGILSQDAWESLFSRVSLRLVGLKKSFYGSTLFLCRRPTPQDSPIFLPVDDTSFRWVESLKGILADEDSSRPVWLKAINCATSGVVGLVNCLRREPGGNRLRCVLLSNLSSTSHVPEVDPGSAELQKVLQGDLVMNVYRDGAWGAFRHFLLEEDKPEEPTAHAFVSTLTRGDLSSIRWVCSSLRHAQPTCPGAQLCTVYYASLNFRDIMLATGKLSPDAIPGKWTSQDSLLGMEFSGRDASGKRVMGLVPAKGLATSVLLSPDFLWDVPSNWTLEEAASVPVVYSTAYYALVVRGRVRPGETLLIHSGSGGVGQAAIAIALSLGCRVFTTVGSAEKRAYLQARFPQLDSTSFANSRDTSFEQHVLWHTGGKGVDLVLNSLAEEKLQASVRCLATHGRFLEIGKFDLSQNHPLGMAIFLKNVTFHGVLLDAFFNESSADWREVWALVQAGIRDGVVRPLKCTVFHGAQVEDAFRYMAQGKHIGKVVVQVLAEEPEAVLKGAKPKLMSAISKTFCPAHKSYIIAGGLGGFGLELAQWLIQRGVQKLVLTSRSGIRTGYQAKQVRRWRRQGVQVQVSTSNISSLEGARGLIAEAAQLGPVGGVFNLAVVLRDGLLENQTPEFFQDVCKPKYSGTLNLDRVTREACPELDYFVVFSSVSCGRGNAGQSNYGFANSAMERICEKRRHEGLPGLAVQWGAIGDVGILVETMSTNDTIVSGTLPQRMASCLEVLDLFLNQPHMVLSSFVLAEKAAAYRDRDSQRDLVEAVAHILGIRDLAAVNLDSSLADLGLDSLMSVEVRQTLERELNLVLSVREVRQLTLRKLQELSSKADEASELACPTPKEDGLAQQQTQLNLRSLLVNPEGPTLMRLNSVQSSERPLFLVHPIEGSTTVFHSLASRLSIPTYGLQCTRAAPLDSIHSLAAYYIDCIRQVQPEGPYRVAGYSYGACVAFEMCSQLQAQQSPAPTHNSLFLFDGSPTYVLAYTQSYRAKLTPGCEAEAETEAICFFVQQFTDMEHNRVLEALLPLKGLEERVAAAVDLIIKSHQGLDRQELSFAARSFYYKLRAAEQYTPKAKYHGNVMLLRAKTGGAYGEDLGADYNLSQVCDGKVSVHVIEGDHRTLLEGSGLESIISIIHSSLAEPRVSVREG
Put plainly: FASN enzyme activity assay, fluorescence-based detection of CoA with CPM. It is filed as biochemical. To be noted: 5 nM FASN, 150 μM NADPH, 10 μM acetyl-CoA, 25 μM malonyl-CoA, 90 minutes incubation; read-out: IC50 data for Additional Compounds of Formulae I-V(a): Activity. In a few lines: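 Human GST-tagged FASN, baculovirus-expressed (5 nM), in 50 mM HEPES pH 7.5 with 150 μM NADPH, 10 μM acetyl-CoA, 25 μM malonyl-CoA, 0.5% DMSO; malonyl-CoA-started, 90 min. Released CoA detected with CPM (50 μM dilution), 30 min, fluorescence ex 390/em 530. IC50 from variable-slope sigmoidal fit of % inhibition versus log concentration.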
Turning to `CCCONC(=O)N1CCC(Oc2ccc(-c3ccc4nccn4c3Cl)cc2)CC1` [Example 576, 4-[4-(5-Chloroimidazo[1,2-a]pyridin-6-yl)phenoxy]-N-propoxy-piperidine-1-carboxamide], the IC50 was in the range of 1000 to 10000 nM.

Take `Cc1c(-c2ccc(OC3CCN(C(=O)N4CCN(C(C)C)CC4)CC3)cc2)ccc2cccnc12` [Example 532, (4-Isopropylpiperazin-1-yl)-[4-[4-(8-methyl-7-quinolyl)phenoxy]-1-piperidyl]methanone, HCl]: the IC50 lay within 1000 to 10000 nM.

For the molecule `Cc1c(-c2ccc(OC3CCN(C(=O)NOC(C)C)CC3)cc2)ccn2ccnc12` [Example 630, N-Isopropoxy-4-[4-(8-methylimidazo[1,2-a]pyridin-7-yl)phenoxy]piperidine-1-carboxamide, HCl], the IC50 was in the range of 100 to 999 nM.

As to `Cc1c(-c2ccc(OC3CCN(C(=O)OC4CCC4)CC3)cc2)ccc2cccnc12` [Example 561, Cyclobutyl 4-[4-(8-methyl-7-quinolyl)phenoxy]piperidine-1-carboxylate], the IC50 was in the range of 1000 to 10000 nM.

Turning to `Cc1c(-c2ccc(OC3CCN(C(=O)NCCN4CCOCC4)CC3)cc2)ccc2cccnc12` [Example 531, 4-[4-(8-Methyl-7-quinolyl)phenoxy]-N-(2-morpholinoethyl)piperidine-1-carboxamide HCl], the IC50 fell in the range of 1000 to 10000 nM.

Still in this test, the particulars now being: 5 nM FASN, 150 μM NADPH, 10 μM acetyl-CoA, 25 μM malonyl-CoA, 90 minutes incubation; read-out: IC50 data for Compounds of Formulae I-V/V(a): Activity.
Turning to `O=C(C1CCC1)N1CCC(Oc2ccc(-c3cnc4ccccc4c3Cl)cc2)CC1` [Example 49, {4-[4-(4-Chloroquinolin-3-yl)-phenoxy]-piperidin-1-yl}-cyclobutyl-methanone], the IC50 was 1 to 99 nM.

Consider `Cc1c(-c2ccc(OC3CCN(C(=O)C4CC4)CC3)cc2)ccc2ncnn12` [Example 314, Cyclopropyl-{4-[4-(5-methyl-[1,2,4]triazolo[1,5-a]pyridin-6-yl)-phenoxy]-piperidin-1-yl}-methanone], for which the IC50 is 1000 to 10000 nM.

In the case of `CCC(=O)N1CCC(Oc2ccc(-c3cncc(-c4ccccc4)c3)cc2)CC1` [Example 382, 1-{4-[4-(5-Phenylpyridin-3-yl)-phenoxy]-piperidin-1-yl}-propan-1-one], the IC50 was in the range of 1000 to 10000 nM.

As to `Cc1c(-c2ccc(OC3CCN(C(=O)[C@H]4CCCO4)CC3)cc2)ccc2ncnn12` [Example 311, {4-[4-(5-Methyl-[1,2,4]triazolo[1,5-a]pyridin-6-yl)-phenoxy]-piperidin-1-yl}-(R)-tetrahydrofuran-2-yl-methanone], the IC50 lay in the range of 1 to 99 nM.

Take `O=C(C1CC1)N1CCC(Oc2ccc(-c3cnc4cc(F)ccc4c3)cc2)CC1` [Example 477, Cyclopropyl-{4-[4-(7-fluoroquinolin-3-yl)-phenoxy]-piperidin-1-yl}-methanone]: the IC50 was 1 to 99 nM.

On to `COc1c(-c2ccc(OC3CCN(C(=O)[C@H]4CCCO4)CC3)cc2)ccc2cccnc12` [Example 272, {4-[4-(8-Methoxyquinolin-7-yl)-phenoxy]-piperidin-1-yl}-(R)-tetrahydro-furan-2-yl-methanone, TFA salt], for which the IC50 lay within 1 to 99 nM.

In the case of `O=C(C1CC1)N1CCC(Oc2ccc(-c3cnc4ccccc4c3)c(Cl)c2)CC1` [Example 205, [4-(3-Chloro-4-quinolin-3-yl-phenoxy)-piperidin-1-yl]-cyclopropyl-methanone], the IC50 lay within 1 to 99 nM.

`CCC(=O)N1CCC(Oc2ccc(-c3ccc4cccnc4c3Cl)cc2F)CC1` [Example 224, 1-{4-[4-(8-Chloroquinolin-7-yl)-2-fluorophenoxy]-piperidin-1-yl}-propan-1-one]: the IC50 lay in the range of 1 to 99 nM.

For the molecule `Cc1c(-c2ccc(OC3CCN(C(=O)C4(CO)CC4)CC3)cc2)ccc2nccn12` [Example 304, (1-Hydroxymethylcyclopropyl)-{4-[4-(5-methyl-imidazo[1,2-a]pyridin-6-yl)-phenoxy]-piperidin-1-yl}-methanone], the IC50 fell in the range of 1000 to 10000 nM.

As to `Cc1cc2nccn2cc1-c1ccc(OC2CCN(C(=O)[C@H]3CCCO3)CC2)cc1` [Example 292, {4-[4-(7-Methylimidazo[1,2-a]pyridin-6-yl)-phenoxy]-piperidin-1-yl}-(R)-tetrahydrofuran-2-yl-methanone], the IC50 lay in the range of 100 to 999 nM.

`Cc1ccc2cc(-c3ccc(OC4CCN(C(=O)C5CC5)CC4)cc3)cnc2c1` [Example 64, Cyclopropyl-{4-[4-(7-methylquinolin-3-yl)-phenoxy]-piperidin-1-yl}-methanone]: the IC50 lay within 100 to 999 nM.

On to `CC(C)C(=O)N1CCC(Oc2ccc(-c3cnc4ccccc4c3)nc2)CC1` [Example 141, 2-Methyl-1-[4-(6-quinolin-3-yl-pyridin-3-yloxy)-piperidin-1-yl]-propan-1-one, 2HCl], for which the IC50 lay in the range of 1000 to 10000 nM.

Consider `CCC(=O)N1CCC(Oc2ccc(-c3ccc(Oc4ccccc4)nc3)cc2)CC1` [Example 389, 1-{4-[4-(6-Phenoxy-pyridin-3-yl)-phenoxy]-piperidin-1-yl}-propan-1-one], for which the IC50 is 1000 to 10000 nM.

Regarding `CCC(=O)N1[C@@H]2CC[C@H]1C[C@@H](Oc1ccc(-c3ccc4cccnc4c3C)cc1)C2` [Example 369, 1-{endo-3-[4-(8-Methylquinolin-7-yl)-phenoxy]-8-aza-bicyclo[3.2.1]oct-8-yl}-propan-1-one, HCl], the IC50 lay in the range of 100 to 999 nM.

For `O=C(c1cccc(-c2ncc[nH]2)c1)N1CCC(Oc2ccc(-c3cnc4ccccc4c3)cc2)CC1` [Example 129, [3-(1H-Imidazol-2-yl)-phenyl]-[4-(4-quinolin-3-yl-phenoxy)-piperidin-1-yl]-methanone, HCl], the IC50 was 1000 to 10000 nM.

With `Cc1c(-c2ccc(O[C@@H]3CCN(C(=O)C4CC4)C[C@H]3F)cc2)ccc2cccnc12` (relative stereo) [Example 374, Cyclopropyl-{trans-3-fluoro-4-[4-(8-methylquinolin-7-yl)-phenoxy]-piperidin-1-yl}-methanone, HCl], the IC50 lay in the range of 100 to 999 nM.

`O=C(c1ccon1)N1CCC(Oc2ccc(-c3cnc4ccccc4c3)cc2)CC1` [Example 124, Isoxazol-3-yl-[4-(4-quinolin-3-yl-phenoxy)-piperidin-1-yl]-methanone, HCl]: the IC50 was in the range of 1000 to 10000 nM.

Take `O=C(C1CC1)N1CCC(Oc2ccc(-c3ccc4scnc4c3)cc2)CC1` [Example 268, [4-(4-Benzothiazol-5-yl-phenoxy)-piperidin-1-yl]-cyclopropylmethanone, TFA salt]: the IC50 was in the range of 1000 to 10000 nM.

With `CCC(=O)N1CCC(N(C)c2ccc(-c3cnc4ccccc4c3)cc2)CC1` [Example 524, 1-{4-[Methyl-(4-quinolin-3-yl-phenyl)-amino]-piperidin-1-yl}-propan-1-one, HCl], the IC50 was 100 to 999 nM.

Regarding `O=C(c1cccc(-c2nc3ccccc3[nH]2)c1)N1CCC(Oc2ccc(-c3cnc4ccccc4c3)cc2)CC1` [Example 130, [3-(1H-Benzimidazol-2-yl)-phenyl]-[4-(4-quinolin-3-yl-phenoxy)-piperidin-1-yl]-methanone, HCl], the IC50 is 1000 to 10000 nM.

Regarding `CCC(=O)N1CCC(Oc2ccc(-c3ccc4nccn4c3Cl)cc2)CC1` [Example 296, 1-{4-[4-(5-Chloroimidazo[1,2-a]pyridin-6-yl)-phenoxy]-piperidin-1-yl}-propan-1-one], the IC50 lay within 100 to 999 nM.

Regarding `O=C(C1CC(F)(F)CO1)N1CCC(Oc2ccc(-c3cnc4ccccc4c3)cc2)CC1` (centres unmarked) [Example 163, (4,4-Difluorotetrahydrofuran-2-yl)-[4-(4-quinolin-3-yl-phenoxy)-piperidin-1-yl]-methanone, HCl], the IC50 is 100 to 999 nM.

For the molecule `C[C@@H]1C[C@H](C)[C@H](C(=O)N2CCC(Oc3ccc(-c4cnc5ccccc5c4)cc3)CC2)O1` (racemic) [Example 155, ((2R,3S,5R)/(2S,3R,5S)-3,5-Dimethyl-tetrahydrofuran-2-yl)-[4-(4-quinolin-3-yl-phenoxy)-piperidin-1-yl]-methanone, HCl], the IC50 lay in the range of 1000 to 10000 nM.

For the molecule `Cn1ncc2ccc(-c3ccc(OC4CCN(C(=O)[C@H]5CCCO5)CC4)cc3)cc21` [Example 317, {4-[4-(1-Methyl-1H-indazol-6-yl)-phenoxy]-piperidin-1-yl}-(R)-tetrahydrofuran-2-yl-methanone; compound with trifluoroacetic acid], the IC50 was 1 to 99 nM.

For the molecule `COc1cc2cc(-c3ccc(OC4CCN(C(=O)C5CCC5)CC4)cc3)ccc2cn1` [Example 417, Cyclobutyl-{4-[4-(3-methoxyisoquinolin-6-yl)-phenoxy]-piperidin-1-yl}-methanone], the IC50 fell in the range of 100 to 999 nM.

Regarding `COc1cc(-c2ccc(OC3CCN(C(=O)C4CC4)CC3)cc2)cnc1OC` [Example 499, Cyclopropyl-{4-[4-(5,6-dimethoxypyridin-3-yl)-phenoxy]-piperidin-1-yl}-methanone], the IC50 was 1000 to 10000 nM.

Regarding `O=C([C@H]1CCCO1)N1CCC(Oc2ccc(-c3ccn4cnnc4c3)cc2)CC1` [Example 307, (R)-Tetrahydrofuran-2-yl-[4-(4-[1,2,4]triazolo[4,3-a]pyridin-7-yl-phenoxy)-piperidin-1-yl]-methanone], the IC50 was in the range of 100 to 999 nM.

Consider `CCC(=O)N1CCC(Oc2ccc(-c3ccc4ncnn4c3C)cc2)CC1` [Example 313, 1-{4-[4-(5-Methyl-[1,2,4]triazolo[1,5-a]pyridin-6-yl)-phenoxy]-piperidin-1-yl}-propan-1-one], for which the IC50 was 1000 to 10000 nM.

Regarding `CCC(=O)N1CCC(Oc2ccc(-c3cc(O)c4ccnn4c3)cc2)CC1` [Example 426, 1-{4-[4-(4-Hydroxypyrazolo[1,5-a]pyridin-6-yl)-phenoxy]-piperidin-1-yl}-propan-1-one], the IC50 was 1000 to 10000 nM.

For the molecule `COc1c(-c2ccc(OC3CCN(C(=O)C4CC4)CC3)cc2)ccc2cccnc12` [Example 274, Cyclopropyl-{4-[4-(8-methoxyquinolin-7-yl)-phenoxy]-piperidin-1-yl}-methanone, HCl], the IC50 lay within 1 to 99 nM.

The record behind these values is patent US9902696B2, “1,4-substituted piperidine derivatives” (Cephalon, Inc., priority 2015, dated 2018).
